ChEMBL document CHEMBL4354835, “Selective Blockade of Neuronal BK (α + β4) Channels Preventing Epileptic Seizure” (J Med Chem, 2020)
Active and inactive are the calls of the source. The rule behind the calls is not given here.

Tests used:
[1] = species on record: Rattus norvegicus; assay: Anticonvulsant activity against PTZ-induced epileptic seizure Sprague-Dawley rat model assessed as mortality rate compound infused into hippocampal region and 10 mins later injected with PTZ and measured for 2 hrs post PTZ-stimulation (reference value: 33.33%); type: functional
[2] = species on record: Rattus norvegicus; assay: Anticonvulsant activity against PTZ-induced epileptic seizure Sprague-Dawley rat model assessed as latency time of seizures compound infused into hippocampal region and 10 mins later injected with PTZ and measured for 2 hrs post PTZ-stimulation (reference value: 108.5 +/- 8.63 sec); type: functional
[3] = species on record: Rattus norvegicus; assay: Anticonvulsant activity against PTZ-induced epileptic seizure Sprague-Dawley rat model assessed as duration of seizure compound infused into hippocampal region and 10 mins later injected with PTZ and measured for 2 hrs post PTZ-stimulation (reference value: 376 +/- 76.43 sec); type: functional
[4] = molecular target: KCNMA1/KCNMB4 (Homo sapiens, UniProt Q12791+Q86W47); assay: Inhibition of human BK alpha/beta4 channel expressed in HEK293T cells assessed as K+ outward current fraction at 10 uM at -80 mV holding potential by whole cell patch clamp method relative to control; type: cell-based
[5] = molecular target: T1, Calcium-activated potassium channel subunit beta-4 (Homo sapiens, UniProt Q86W47); assay: Binding affinity to NT-495 fluorophore reagent labelled human BK beta4 (45 to 166 residues) incubated for 30 mins by microscale thermophoresis assay
T1 sequence (Q86W47 whole entry): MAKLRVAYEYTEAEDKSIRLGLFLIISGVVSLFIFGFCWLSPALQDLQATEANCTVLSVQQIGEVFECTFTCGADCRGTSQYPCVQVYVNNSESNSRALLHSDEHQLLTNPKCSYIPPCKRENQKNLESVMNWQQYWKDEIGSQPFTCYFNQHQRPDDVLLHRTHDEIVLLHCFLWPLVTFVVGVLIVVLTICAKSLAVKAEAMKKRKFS

[6] = molecular target: T2, KCNMA1/KCNMB4 (Rattus norvegicus) (UniProt Q62976+Q9ESK8); assay: Inhibition of BK alpha/beta-4 in PTZ-stimulated rat hippocampal pyramidal neurons assessed as larger action potential width at 300 pA current injection at -80mV holding potential measured after 10 mins by whole cell current clamp assay; type: protein-complex assay
[7] = molecular target: T2, KCNMA1/KCNMB4 (Rattus norvegicus); assay: Inhibition of BK alpha/beta-4 in PTZ-stimulated rat hippocampal pyramidal neurons assessed as slower decay of after hyperpolarization at 300 pA at -80mV holding potential measured after 10 mins by whole cell current clamp assay; type: protein-complex assay
[8] = molecular target: T2, KCNMA1/KCNMB4 (Rattus norvegicus); assay: Inhibition of BK alpha/beta-4 in PTZ-stimulated rat hippocampal pyramidal neurons assessed as increase in AHP size at 300 pA at -80mV holding potential measured after 10 mins by whole cell current clamp assay; type: protein-complex assay
[9] = species on record: Rattus norvegicus; assay: Anticonvulsant activity against PTZ-induced epileptic seizure Sprague-Dawley rat model assessed as reduction in mortality rate compound infused into hippocampal region and 10 mins later injected with PTZ and measured for 2 hrs post PTZ-stimulation; type: functional, organism-based
[10] = species on record: Rattus norvegicus; assay: Anticonvulsant activity against PTZ-induced epileptic seizures Sprague-Dawley rat model assessed as decrease in number of seizures at high stage (stage 4 and 5) compound infused into hippocampal region and 10 mins later injected with PTZ and measured for 2 hrs post-PTZ stimulation; type: functional, organism-based
[11] = species on record: Rattus norvegicus; assay: Effect on neuronal network in PTZ-induced epileptic seizures Sprague-Dawley rat model assessed as lowered PSD at gamma wave band compound infused into hippocampal region and 10 mins later injected with PTZ and measured after 2 hrs by power spectral density analysis; type: functional, organism-based
[12] = species on record: Rattus norvegicus; assay: Effect on neuronal network in PTZ-induced epileptic seizures Sprague-Dawley rat model assessed as lowered PSD at theta wave band compound infused into hippocampal region and 10 mins later injected with PTZ and measured after 2 hrs by power spectral density analysis; type: functional, organism-based
[13] = species on record: Rattus norvegicus; assay: Effect on neuronal network in PTZ-induced epileptic seizures Sprague-Dawley rat model assessed as lowered PSD at alpha wave band compound infused into hippocampal region and 10 mins later injected with PTZ and measured after 2 hrs by power spectral density analysis; type: functional, organism-based
[14] = species on record: Rattus norvegicus; assay: Effect on neuronal network in PTZ-induced epileptic seizures Sprague-Dawley rat model assessed as lowered PSD at delta wave band compound infused into hippocampal region and 10 mins later injected with PTZ and measured after 2 hrs by power spectral density analysis; type: functional, organism-based
[15] = species on record: Rattus norvegicus; assay: Effect on neuronal network in PTZ-induced epileptic seizures Sprague-Dawley rat model assessed as lowered PSD at beta wave band compound infused into hippocampal region and 10 mins later injected with PTZ and measured after 2 hrs by power spectral density analysis; type: functional, organism-based
[16] = species on record: Rattus norvegicus; assay: (§1) Inhibition of C-Fos expression in PTZ-induced epileptic seizures Sprague-Dawley rat model assessed as inhibition of FLI-positive granular neurons in DG region of contralateral hippocampus at 10 uM compound infused into hippocampal region and 10 mins later injected with PTZ and measured after 2 hrs by immunohistochemistry; type: functional, organism-based
[17] = species on record: Rattus norvegicus; assay: as §1, with “pyramidal” for “granular”, “CA3” for “DG”, “ipsilateral” for “contralateral”; type: functional, organism-based
[18] = species on record: Rattus norvegicus; assay: as §1, with “pyramidal” for “granular”, “CA3” for “DG”; type: functional, organism-based
[19] = species on record: Rattus norvegicus; assay: (§2) Neuroprotective activity in PTZ-induced epileptic seizure Sprague-Dawley rat model assessed as inhibition of hippocampal destruction by measuring increase in Nissl stained pyramidal neurons in contralateral hippocampus CA1 region compound infused into hippocampal region and 10 mins later injected with PTZ and measured after 3 days by Nissl staining based microscopic analysis; type: functional, organism-based
[20] = species on record: Rattus norvegicus; assay: as §2, with “CA3” for “CA1”; type: functional, organism-based
[21] = species on record: Rattus norvegicus; assay: as §2, with “granular” for “pyramidal”, “DG” for “CA1”; type: functional, organism-based
[22] = species on record: Rattus norvegicus; assay: Effect on neuronal network in PTZ-induced epileptic seizures Sprague-Dawley rat model assessed as reduced total PSD frequency waves compound infused into hippocampal region and 10 mins later injected with PTZ and measured after 2 hrs by power spectral density analysis; type: functional, organism-based
[23] = species on record: Rattus norvegicus; assay: as §1, with “ipsilateral” for “contralateral”; type: functional, organism-based
[24] = species on record: Rattus norvegicus; assay: Inhibition of field potential response in PTZ-induced epileptic seizure Sprague-Dawley rat model compound infused into hippocampal region and 10 mins later injected with PTZ and measured after 2 hrs by microarray electrode based analysis; type: functional, organism-based
[25] = species on record: Rattus norvegicus; assay: as §2, with “ipsilateral” for “contralateral”, “CA3” for “CA1”; type: functional, organism-based
[26] = species on record: Rattus norvegicus; assay: as §2, with “granular” for “pyramidal”, “ipsilateral” for “contralateral”, “DG” for “CA1”; type: functional, organism-based

Row | SMILES | Time [2] [s] | Time [3] [s] | Ratio [4] | inhibition [6] | inhibition [7] | inhibition [8] | Activity [9] | Activity [10] | Activity [11] | Activity [12] | Activity [13] | Activity [14] | Activity [15] | inhibition [16] | inhibition [17] | inhibition [18] | Activity [19] | inhibition [22] | inhibition [23] | further results
1 | CCCC(CCC)C(=O)O [VALPROIC ACID] | 156.63 | 181.25 |  |  |  |  |  |  |  |  |  |  |  |  |  |  |  |  |  | mortality [1]: 0%
2 | CC[C@H](C)[C@H](NC(=O)[C@H](CC(C)C)NC(=O)CNC(=O)[C@H](Cc1ccccc1)NC(=O)[C@H](CO)NC(=O)CN)C(=O)N[C@@H](CC(=O)O)C(=O)N[C@H](C(=O)N[C@@H](CCCCN)C(=O)N[C@H]1CSSC[C@@H]2NC(=O)[C@H](CCCCN)NC(=O)CNC(=O)[C@H](CCC(N)=O)NC(=O)CNC(=O)[C@H](CO)NC(=O)CNC(=O)[C@H]([C@@H](C)O)NC(=O)[C@H](C(C)C)NC(=O)[C@H](CCC(=O)O)NC(=O)[C@H](CCCCN)NC(=O)[C@@H]3CSSC[C@@H](C(=O)N[C@@H](Cc4ccc(O)cc4)C(=O)O)N[C@@H](CCCNC(=N)N)C(=O)[C@H](CSSC[C@H](NC(=O)[C@H](CCC(=O)O)NC(=O)[C@H](CO)NC(=O)[C@H](CO)NC(=O)[C@H](C)NC(=O)[C@H](Cc4ccccc4)NC1=O)C(=O)N[C@@H](Cc1c[nH]c4ccccc14)C(=O)N[C@@H]([C@@H](C)O)C(=O)N[C@@H](C)C(=O)N3)N[C@@H](CCC(N)=O)C(=O)NC(=O)[C@H](CC(N)=O)NC(=O)[C@H](CC(N)=O)NC(=O)[C@H](CCC(N)=O)NC2=O)C(C)C | 219.5 to 266.5 | 316.66 to 353.33 | 0.8 | Active | inactive | inactive | inactive | inactive | Active | inactive | inactive | inactive | inactive | inactive | inactive | inactive | inactive | inactive | inactive | Kd [5]: Not Active; Activity [20]: Active; Activity [21]: Active
3 | CC[C@H](C)[C@H](NC(=O)[C@H](CC(C)C)NC(=O)CNC(=O)[C@H](Cc1ccccc1)NC(=O)[C@H](CO)NC(=O)CN)C(=O)N[C@@H](CC(=O)O)C(=O)N[C@H](C(=O)N[C@@H](CCCCN)C(=O)N[C@H]1CSSC[C@@H]2NC(=O)[C@H](CCCCN)NC(=O)CNC(=O)[C@H](C)NC(=O)CNC(=O)[C@H](CO)NC(=O)CNC(=O)[C@H]([C@@H](C)O)NC(=O)[C@H](C(C)C)NC(=O)[C@H](CCCCN)NC(=O)[C@H](CCCCN)NC(=O)[C@@H]3CSSC[C@@H](C(=O)N[C@@H](Cc4ccc(O)cc4)C(=O)O)N[C@@H](CCCNC(=N)N)C(=O)[C@H](CSSC[C@H](NC(=O)[C@H](CCC(=O)O)NC(=O)[C@H](CO)NC(=O)[C@H](CO)NC(=O)[C@H](C)NC(=O)[C@H](Cc4ccccc4)NC1=O)C(=O)N[C@@H](Cc1c[nH]c4ccccc14)C(=O)N[C@@H]([C@@H](C)O)C(=O)N[C@@H](C)C(=O)N3)N[C@@H](CCC(N)=O)C(=O)NC(=O)[C@H](CC(N)=O)NC(=O)[C@H](CC(N)=O)NC(=O)[C@H](CCC(N)=O)NC2=O)C(C)C | 219.5 to 266.5 | 316.66 to 353.33 | 0.74 | Active | inactive | inactive | inactive | inactive | inactive | inactive | inactive | inactive | inactive | inactive | inactive | inactive | inactive | inactive | inactive | Kd ([5]; read-out: Kd): 640 µM; inhibition [24]: inactive; Activity [25]: Active; Activity [26]: Active
